Source: PubChem BioAssay AID1963967 (Molecular Pharmacology Branch, DTP, NCI, 2024)
“And” between values parts separate entries of the source, which are not always exact repeats. Equal values may be shown once.

Tested on: 855422-203-R-J1-PDC spheroids with HUVEC/MSC, viability
Experiment: Anticancer human tumor 855422-203-R-J1-PDC patient-derived bladder carcinoma cell line growth inhibition [PI3K]
Conditions: for viability, T/C: stronger effect = lower value
Text: Combinatorial screen of targeted agents with the PI3K inhibitors inavolisib, alpelisib, duvelisib, and copanlisib in multi-cell type tumor spheroids
A high-throughput screen of multi-cell type tumor spheroids was designed to identify active combinations of targeted small molecules and PI3K pathway inhibitors. Complex spheroids include a stromal component modeled by human endothelial cells (HUVEC) and fibroblasts modeled by human mesenchymal stem cells (MSCs). The concentration ranges selected for each drug and investigational agent were based upon clinically achievable concentrations if the clinical Cmax of the agent was known.
Compounds. The drugs and investigational agents: inavolisib (NSC800729), alpelisib (NSC765974), duvelisib (NSC772469), copanlisib (NSC816437), ipatasertib (NSC767898), afuresertib (NSC778305), talazoparib (NSC767125), sapanisertib (NSC764658), selumetinib (NSC741078), tovorafenib (DAY101, NSC766906), vemurafenib (NSC761431), ravoxertinib (NSC781343), sotorasib (NSC818433), MRTX1133 (NSC 836407), abemaciclib (NSC 768073), palbociclib (NSC758247), venetoclax (NSC 766270), SY5609 (NSC837396), enzalutamide (NSC755605), and darolutamide (NSC825331), were obtained from the National Cancer Institute (NCI) Developmental Therapeutics Program Chemical Repository. The FDA-approved anticancer drug set is available from the NCI Developmental Therapeutics Program. […] The stock solutions were prepared in dimethyl sulfoxide (DMSO, Sigma-Aldrich, St. Louis, MO, cat. D2650) at 800-fold the tested concentration and stored at -70 degrees C prior to their use. All drugs and investigational agents were tested over a range starting from a high concentration at or near the clinical Cmax and decreasing in half-log increments. If the clinical Cmax for an agent had not been determined, the highest concentration tested was 10 microM.
Cell Culture. All cells were maintained in an incubator at 37 degrees C and 5% CO2 with 95% humidity. The PDC lines were cultured according to standard operating procedures established by the NCI PDMR (https://pdmr.cancer.gov/sops/default.htm). All PDCs were thawed and cultured in Matrigel-coated flasks prepared with a working solution of 1X Ham's F-12 nutrient mix, without supplementation (Invitrogen, Waltham, MA, cat. 11765054), 100 U/mL penicillin-streptomycin (Invitrogen, cat. 15140122), and 2.5% Matrigel (Corning Inc., Corning, NY, cat. 354248) for the first three passages. The 354836-022-R-J1-PDC, 475296-252-R-J1-PDC, and 997726-040-R-J2-PDC lines were cultured in 6A media, which includes advanced DMEM/F-12 (Thermo Fisher Scientific, cat. 12634028), 10 mM HEPES (Thermo Fisher Scientific, cat. 15630080), 1X GlutaMAX supplement (Thermo Fisher Scientific, cat. 35050061), 0.1 mg/mL primocin (InvivoGen, San Diego, CA, cat. ant-pm-2), 10% defined fetal bovine serum, heat inactivated (HyClone Laboratories Inc., Logan, UT, cat. SH30070.03HI), 50% L-WRN conditioned media (ATCC, cat. CRL-3276), 1.25 mM N-Acetyl-L-cysteine (Sigma-Aldrich, cat. A9165), 10 mM nicotinamide (Sigma-Aldrich, cat. N0636), 1X B-27 supplement (Thermo Fisher Scientific, cat. 17504044), 1X N-2 supplement (Thermo Fisher Scientific, cat. 17502048), and 10 microM Y-27632 dihydrochloride (Tocris Bioscience, Bristol, United Kingdom, cat. 1254). The 624824-186-R-J2-PDC line was cultured in 6C/Colon 1B media, which includes all 6A media components plus 50 ng/mL human EGF recombinant protein (Thermo Fisher Scientific, cat. PHG0311). […]

[1] = curve of first compound, second compound 0.0316 µM
[2] = curve of first compound, second compound 0.1 µM
[3] = curve of first compound, second compound 0.316 µM
[4] = curve of first compound, second compound 1 µM
[5] = curve of first compound, second compound 3.16 µM
[6] = curve of first compound, second compound 10 µM
[7] = second compound 0.0316 µM, first compound 0.0316 µM
[8] = second compound 0.0316 µM, first compound 0.1 µM
[9] = second compound 0.0316 µM, first compound 0.316 µM
[10] = second compound 0.0316 µM, first compound 1 µM
[11] = second compound 0.0316 µM, first compound 3.16 µM
[12] = second compound 0.0316 µM, first compound 10 µM
[13] = second compound 0.1 µM, first compound 0.0316 µM
[14] = second compound 0.1 µM, first compound 0.1 µM
[15] = second compound 0.1 µM, first compound 0.316 µM
[16] = second compound 0.1 µM, first compound 1 µM
[17] = second compound 0.1 µM, first compound 3.16 µM
[18] = second compound 0.1 µM, first compound 10 µM
[19] = second compound 0.316 µM, first compound 0.0316 µM
[20] = second compound 0.316 µM, first compound 0.1 µM
[21] = second compound 0.316 µM, first compound 0.316 µM
[22] = second compound 0.316 µM, first compound 1 µM
[23] = second compound 0.316 µM, first compound 3.16 µM
[24] = second compound 0.316 µM, first compound 10 µM
[25] = second compound 1 µM, first compound 0.0316 µM
[26] = second compound 1 µM, first compound 0.1 µM
[27] = second compound 1 µM, first compound 0.316 µM
[28] = second compound 1 µM, first compound 1 µM
[29] = second compound 1 µM, first compound 3.16 µM
[30] = second compound 1 µM, first compound 10 µM
[31] = second compound 3.16 µM, first compound 0.0316 µM
[32] = second compound 3.16 µM, first compound 0.1 µM
[33] = second compound 3.16 µM, first compound 0.316 µM
[34] = second compound 3.16 µM, first compound 1 µM
[35] = second compound 3.16 µM, first compound 3.16 µM
[36] = second compound 3.16 µM, first compound 10 µM
[37] = second compound 10 µM, first compound 0.0316 µM
[38] = second compound 10 µM, first compound 0.1 µM
[39] = second compound 10 µM, first compound 0.316 µM
[40] = second compound 10 µM, first compound 1 µM
[41] = second compound 10 µM, first compound 3.16 µM
[42] = second compound 10 µM, first compound 10 µM
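Note: agents incubated with spheroids for one week before read-out.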
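Throughout, for viability, T/C: 100% = DMSO vehicle-treated control wells.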

C=CC(=O)N1CCN(c2nc(=O)n(-c3c(C)ccnc3C(C)C)c3nc(-c4c(O)cccc4F)c(F)cc23)C(C)C1 (stereo unspecified) + CC(Nc1ncnc2nc[nH]c12)c1cc2cccc(Cl)c2c(=O)n1-c1ccccc1 was tested, and the IC50 [1] was greater than 10000 nM, the IC50 [2] was greater than 10000 nM and the IC50 [3] was greater than 10000 nM. For the same molecule, the IC50 [4] was greater than 10000 nM, the IC50 [5] was greater than 10000 nM and the IC50 [6] was greater than 10000 nM. For the same molecule, the viability, T/C [7] was 107%, the viability, T/C [8] was 91.1% and the viability, T/C [9] was 112%. The viability, T/C [10] was 95%, the viability, T/C [11] was 128% and the viability, T/C [12] was 133%. The viability, T/C [13] was 102%, the viability, T/C [14] was 90.7% and the viability, T/C [15] was 109%. It also gave a viability, T/C [16] of 110%, a viability, T/C [17] of 119% and a viability, T/C [18] of 129%. The viability, T/C [19] was 97.5%, the viability, T/C [20] was 92% and the viability, T/C [21] was 98.3%. It also gave a viability, T/C [22] of 121%, a viability, T/C [23] of 122% and a viability, T/C [24] of 122%. The viability, T/C [25] was 100%, the viability, T/C [26] was 98.7% and the viability, T/C [27] was 112%. For the same molecule, the viability, T/C [28] was 117%, the viability, T/C [29] was 122% and the viability, T/C [30] was 110%. The viability, T/C [31] was 102%, the viability, T/C [32] was 102% and the viability, T/C [33] was 104%. The viability, T/C [34] was 115%, the viability, T/C [35] was 116% and the viability, T/C [36] was 101%. The viability, T/C [37] was 108%, the viability, T/C [38] was 90.4% and the viability, T/C [39] was 104%. For the same molecule, the viability, T/C [40] was 102%, the viability, T/C [41] was 115% and the viability, T/C [42] was 105%.

With Cn1ncnc1[C@H]1c2n[nH]c(=O)c3cc(F)cc(c23)N[C@@H]1c1ccc(F)cc1 the viability, T/C (compound 0.000316 µM) was 113% [middle of 4 runs], the viability, T/C (compound 0.001 µM) was 107% [middle of 4 runs] and the viability, T/C (compound 0.00316 µM) was 104% (2×) and 108% and 109%. The viability, T/C (compound 0.01 µM) was 101% [middle of 4 runs], the viability, T/C (compound 0.0316 µM) was 110% [middle of 4 runs] and the viability, T/C (compound 0.1 µM) was 107% and 100% (3×). The IC50 (curve of compound) was greater than 100 nM.

For Cn1ncc(Cl)c1-c1cc(C(=O)NC(CN)Cc2cccc(F)c2)sc1Cl (stereo unspecified) + CC(Nc1ncnc2nc[nH]c12)c1cc2cccc(Cl)c2c(=O)n1-c1ccccc1, the IC50 [1] was 572 nM, the IC50 [2] was 706 nM and the IC50 [3] was 634 nM. It also gave an IC50 [4] of 695 nM, an IC50 [5] of 454 nM and an IC50 [6] of 411 nM. It also gave a viability, T/C [7] of 98.1%, a viability, T/C [8] of 78.2% and a viability, T/C [9] of 58%. The viability, T/C [10] was 41.9%, the viability, T/C [11] was 25.4% and the viability, T/C [12] was 9.19%. For the same molecule, the viability, T/C [13] was 95.2%, the viability, T/C [14] was 84.5% and the viability, T/C [15] was 59.3%. It also gave a viability, T/C [16] of 46.4%, a viability, T/C [17] of 25.1% and a viability, T/C [18] of 8.79%. It also gave a viability, T/C [19] of 92.2%, a viability, T/C [20] of 74.7% and a viability, T/C [21] of 55.5%. It also gave a viability, T/C [22] of 48.3%, a viability, T/C [23] of 25.9% and a viability, T/C [24] of 6.18%. The viability, T/C [25] was 79.8%, the viability, T/C [26] was 75.4% and the viability, T/C [27] was 62.1%. For the same molecule, the viability, T/C [28] was 45%, the viability, T/C [29] was 22.5% and the viability, T/C [30] was 10%. The viability, T/C [31] was 87.5%, the viability, T/C [32] was 75.3% and the viability, T/C [33] was 52.4%. It also gave a viability, T/C [34] of 39.5%, a viability, T/C [35] of 21.9% and a viability, T/C [36] of 8.05%. The viability, T/C [37] was 83.4%, the viability, T/C [38] was 71.8% and the viability, T/C [39] was 52.5%. The viability, T/C [40] was 36.9%, the viability, T/C [41] was 20.1% and the viability, T/C [42] was 5.58%.
